# Test: Foliar penetration of C14-labeled ethaboxam into cucumber
# Type: in vivo
# Details: cucumber foliage, 24 hours after spotting; result in words
# Method: In order to investigate the relationship of the concentration of polyoxyalkylene alkyl ether and the foliar penetration of ethaboxam, foliar penetration experiment was carried out using radioisotope [C^14]-labeled ethaboxam as follows.
# Cucumber seeds were sown in a horticultural bed soil of pots having a diameter of 6 cm and grown under glass for 3 weeks. 10 mg of the formulation prepared in the comparative example was diluted in 10 ml of tap water. 20 μl of the diluted solution was taken and thereto was added 1.0 μCi of ethaboxam labeled with C^14(81.7 μCi/mg) to prepare the diluted ethaboxam formulation labeled with C^14. […]
# The plants were cut at a distance of 1 cm from the bottom of soil and the cuts were introduced into 250 ml Erlenmeyer flaska 50 ml of the mixed solution of acetonitrile and distilled water(volume ratio=1:4) was added thereto and then, the flask was plugged and shaken for 1 minute. Radioactivity of C^14-ethaboxam in the solution was measured with a liquid scintillation counter and the residue was combusted with a sample oxidizer to collect C^14-carbon dioxide, which was analyzed with the liquid scintillation counter.
# Foliar penetration of ethaboxam is calculated by subtracting radioactivity in the solution from the total radioactivity, which is identical with radioactivity in the residue.
smiles,measurement,value
"CCNc1nc(CC)c(C(=O)NC(C#N)c2cccs2)s1 (stereo not drawn) [ethaboxam, N-(α-cyano-2-thenyl)-4-ethyl-2-(ethylamino)-5-thiazolecarboxamide]",foliar penetration of ethaboxam,hardly penetrated into plants in the absence of adjuvant

# — patent US6740671B2 (priority 2000, dated 2004)
